Laboratory results published in ChEMBL document CHEMBL5518175, “Design, synthesis, and biological evaluation of HDAC6 inhibitors targeting L1 loop and serine 531 residue” (Eur J Med Chem, 2024).

Tests used:
[1] = molecular target: T1, Protein deacetylase HDAC6 (Homo sapiens, UniProt Q9UBN7)
T1 sequence (Q9UBN7 whole entry): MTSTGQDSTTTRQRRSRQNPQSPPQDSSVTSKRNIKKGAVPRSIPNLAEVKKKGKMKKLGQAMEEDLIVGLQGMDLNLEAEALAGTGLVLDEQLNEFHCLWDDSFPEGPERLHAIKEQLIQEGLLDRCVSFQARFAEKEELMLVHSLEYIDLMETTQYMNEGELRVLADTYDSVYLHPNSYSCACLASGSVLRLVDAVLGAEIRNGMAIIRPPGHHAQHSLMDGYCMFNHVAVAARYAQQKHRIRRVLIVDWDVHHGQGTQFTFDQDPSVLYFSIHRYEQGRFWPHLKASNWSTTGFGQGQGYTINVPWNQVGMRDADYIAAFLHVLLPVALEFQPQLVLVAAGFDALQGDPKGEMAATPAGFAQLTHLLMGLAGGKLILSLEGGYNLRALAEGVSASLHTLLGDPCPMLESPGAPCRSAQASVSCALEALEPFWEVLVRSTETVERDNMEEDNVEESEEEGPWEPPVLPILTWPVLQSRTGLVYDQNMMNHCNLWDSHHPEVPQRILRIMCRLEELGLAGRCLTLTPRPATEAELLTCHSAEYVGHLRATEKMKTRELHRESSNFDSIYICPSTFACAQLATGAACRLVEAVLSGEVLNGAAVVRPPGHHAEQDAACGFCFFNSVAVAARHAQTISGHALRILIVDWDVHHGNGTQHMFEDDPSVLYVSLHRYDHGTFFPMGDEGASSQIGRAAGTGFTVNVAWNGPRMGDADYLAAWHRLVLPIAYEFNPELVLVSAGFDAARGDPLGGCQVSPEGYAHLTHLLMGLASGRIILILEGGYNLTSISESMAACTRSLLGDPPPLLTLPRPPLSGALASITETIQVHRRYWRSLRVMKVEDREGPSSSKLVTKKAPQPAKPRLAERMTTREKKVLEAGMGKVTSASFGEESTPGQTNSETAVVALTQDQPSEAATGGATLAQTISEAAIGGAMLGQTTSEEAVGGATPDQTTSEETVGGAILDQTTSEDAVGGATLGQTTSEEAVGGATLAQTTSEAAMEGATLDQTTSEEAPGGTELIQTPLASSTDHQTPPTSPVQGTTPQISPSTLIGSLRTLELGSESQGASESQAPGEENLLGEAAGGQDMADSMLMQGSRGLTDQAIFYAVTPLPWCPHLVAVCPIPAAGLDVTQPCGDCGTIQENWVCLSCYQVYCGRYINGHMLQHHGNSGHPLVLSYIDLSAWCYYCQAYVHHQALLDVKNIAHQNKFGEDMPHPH
Description: Inhibition of HDAC6 (unknown origin) incubated for 30 mins by fluorescence plate reader assay

Histone deacetylase 1 = Histone deacetylase 1 (Homo sapiens, UniProt Q13547)
Sequence of Histone deacetylase 1 (Q13547 whole entry): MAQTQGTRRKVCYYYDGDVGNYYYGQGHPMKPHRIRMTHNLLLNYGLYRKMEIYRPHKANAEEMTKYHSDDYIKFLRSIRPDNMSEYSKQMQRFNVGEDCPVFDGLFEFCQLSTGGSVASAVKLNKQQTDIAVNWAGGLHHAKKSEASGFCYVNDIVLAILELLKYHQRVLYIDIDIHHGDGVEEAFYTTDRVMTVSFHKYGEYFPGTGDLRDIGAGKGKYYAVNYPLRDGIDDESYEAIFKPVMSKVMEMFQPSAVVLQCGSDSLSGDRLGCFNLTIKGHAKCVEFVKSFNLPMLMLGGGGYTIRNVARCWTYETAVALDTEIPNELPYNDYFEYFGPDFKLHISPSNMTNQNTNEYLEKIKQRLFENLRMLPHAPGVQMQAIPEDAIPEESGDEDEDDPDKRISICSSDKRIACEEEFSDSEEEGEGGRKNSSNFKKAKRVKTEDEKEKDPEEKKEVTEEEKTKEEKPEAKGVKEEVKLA
Description: Inhibition of HDAC1 (unknown origin) incubated for 30 mins by fluorescence plate reader assay

Histone deacetylase 9 = Histone deacetylase 9 (Homo sapiens, UniProt Q9UKV0); assay: Inhibition of HDAC9 (unknown origin) incubated for 30 mins by fluorescence plate reader assay
Sequence of Histone deacetylase 9 (Q9UKV0 whole entry): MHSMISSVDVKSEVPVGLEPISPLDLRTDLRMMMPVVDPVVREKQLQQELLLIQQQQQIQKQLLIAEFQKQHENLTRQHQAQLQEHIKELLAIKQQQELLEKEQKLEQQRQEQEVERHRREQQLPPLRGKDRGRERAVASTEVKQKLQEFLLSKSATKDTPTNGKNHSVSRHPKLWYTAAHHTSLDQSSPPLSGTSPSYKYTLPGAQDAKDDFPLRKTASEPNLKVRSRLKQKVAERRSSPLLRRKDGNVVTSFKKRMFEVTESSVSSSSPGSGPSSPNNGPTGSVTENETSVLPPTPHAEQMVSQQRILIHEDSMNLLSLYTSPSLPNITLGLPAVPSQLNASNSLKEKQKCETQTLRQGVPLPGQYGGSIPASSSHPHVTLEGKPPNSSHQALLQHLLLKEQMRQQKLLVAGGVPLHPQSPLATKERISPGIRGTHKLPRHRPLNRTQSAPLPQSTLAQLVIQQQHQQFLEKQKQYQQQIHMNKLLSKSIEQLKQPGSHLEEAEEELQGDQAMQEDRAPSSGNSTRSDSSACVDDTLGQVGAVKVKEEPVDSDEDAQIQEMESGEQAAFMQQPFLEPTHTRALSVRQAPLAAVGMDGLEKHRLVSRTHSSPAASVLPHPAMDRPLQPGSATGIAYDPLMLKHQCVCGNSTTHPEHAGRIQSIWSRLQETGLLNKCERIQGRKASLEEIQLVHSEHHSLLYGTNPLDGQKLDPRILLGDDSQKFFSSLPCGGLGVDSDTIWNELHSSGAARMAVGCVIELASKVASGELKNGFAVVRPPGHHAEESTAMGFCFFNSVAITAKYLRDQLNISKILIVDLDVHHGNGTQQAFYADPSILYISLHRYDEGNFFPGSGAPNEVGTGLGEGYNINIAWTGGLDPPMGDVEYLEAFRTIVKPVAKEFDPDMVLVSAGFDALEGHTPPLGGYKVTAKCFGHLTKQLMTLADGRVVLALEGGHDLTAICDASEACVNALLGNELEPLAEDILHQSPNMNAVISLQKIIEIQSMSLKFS

Histone deacetylase 11 = molecular target: T2, Histone deacetylase 11 (Homo sapiens, UniProt Q96DB2); assay: Inhibition of HDAC11 (unknown origin) incubated for 30 mins by fluorescence plate reader assay
T2 sequence (Q96DB2 whole entry): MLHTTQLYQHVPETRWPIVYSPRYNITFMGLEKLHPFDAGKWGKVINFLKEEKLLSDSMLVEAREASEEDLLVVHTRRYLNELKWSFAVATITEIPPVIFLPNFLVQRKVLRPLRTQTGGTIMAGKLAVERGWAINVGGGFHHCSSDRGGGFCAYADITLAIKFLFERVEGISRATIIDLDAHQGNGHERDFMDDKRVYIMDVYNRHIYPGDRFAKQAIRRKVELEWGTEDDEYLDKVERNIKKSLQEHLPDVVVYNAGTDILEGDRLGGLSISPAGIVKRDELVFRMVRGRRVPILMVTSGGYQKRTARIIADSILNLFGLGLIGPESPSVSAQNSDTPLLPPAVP

Histone deacetylase 5 = Histone deacetylase 5 (Homo sapiens, UniProt Q9UQL6); assay: Inhibition of HDAC5 (unknown origin) incubated for 30 mins by fluorescence plate reader assay
Sequence of Histone deacetylase 5 (Q9UQL6 whole entry): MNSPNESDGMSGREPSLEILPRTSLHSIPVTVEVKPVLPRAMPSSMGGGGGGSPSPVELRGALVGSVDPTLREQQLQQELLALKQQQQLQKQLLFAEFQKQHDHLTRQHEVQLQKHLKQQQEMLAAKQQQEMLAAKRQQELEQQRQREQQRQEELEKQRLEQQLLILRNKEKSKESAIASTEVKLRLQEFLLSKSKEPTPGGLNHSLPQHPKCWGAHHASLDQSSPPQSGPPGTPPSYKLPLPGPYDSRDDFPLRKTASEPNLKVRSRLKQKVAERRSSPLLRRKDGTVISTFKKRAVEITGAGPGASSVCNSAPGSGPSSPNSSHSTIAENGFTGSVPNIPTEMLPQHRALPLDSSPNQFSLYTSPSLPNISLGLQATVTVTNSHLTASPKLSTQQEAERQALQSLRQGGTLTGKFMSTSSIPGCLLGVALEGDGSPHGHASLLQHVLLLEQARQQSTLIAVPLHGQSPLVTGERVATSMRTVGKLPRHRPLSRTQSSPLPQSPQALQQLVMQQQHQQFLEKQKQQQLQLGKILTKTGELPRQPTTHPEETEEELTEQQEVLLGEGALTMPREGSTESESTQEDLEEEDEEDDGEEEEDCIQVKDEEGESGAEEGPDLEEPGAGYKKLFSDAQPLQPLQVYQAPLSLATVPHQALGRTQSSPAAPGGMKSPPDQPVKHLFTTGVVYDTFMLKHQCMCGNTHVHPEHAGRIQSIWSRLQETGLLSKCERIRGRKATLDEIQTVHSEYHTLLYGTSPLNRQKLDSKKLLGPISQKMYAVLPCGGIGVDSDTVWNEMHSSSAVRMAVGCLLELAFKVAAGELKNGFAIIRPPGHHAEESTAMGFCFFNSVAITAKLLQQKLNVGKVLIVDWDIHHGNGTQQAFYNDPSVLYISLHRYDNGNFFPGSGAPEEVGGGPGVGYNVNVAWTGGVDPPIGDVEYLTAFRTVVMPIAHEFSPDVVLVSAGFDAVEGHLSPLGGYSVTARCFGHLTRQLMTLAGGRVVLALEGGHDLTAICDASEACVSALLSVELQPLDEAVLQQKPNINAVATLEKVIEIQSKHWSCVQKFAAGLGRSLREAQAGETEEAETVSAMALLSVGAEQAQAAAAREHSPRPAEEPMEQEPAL

[2] = molecular target: T3, Polyamine deacetylase HDAC10 (Homo sapiens, UniProt Q969S8); assay: Inhibition of HDAC10 (unknown origin) incubated for 30 mins by fluorescence plate reader assay
T3 sequence (Q969S8 whole entry): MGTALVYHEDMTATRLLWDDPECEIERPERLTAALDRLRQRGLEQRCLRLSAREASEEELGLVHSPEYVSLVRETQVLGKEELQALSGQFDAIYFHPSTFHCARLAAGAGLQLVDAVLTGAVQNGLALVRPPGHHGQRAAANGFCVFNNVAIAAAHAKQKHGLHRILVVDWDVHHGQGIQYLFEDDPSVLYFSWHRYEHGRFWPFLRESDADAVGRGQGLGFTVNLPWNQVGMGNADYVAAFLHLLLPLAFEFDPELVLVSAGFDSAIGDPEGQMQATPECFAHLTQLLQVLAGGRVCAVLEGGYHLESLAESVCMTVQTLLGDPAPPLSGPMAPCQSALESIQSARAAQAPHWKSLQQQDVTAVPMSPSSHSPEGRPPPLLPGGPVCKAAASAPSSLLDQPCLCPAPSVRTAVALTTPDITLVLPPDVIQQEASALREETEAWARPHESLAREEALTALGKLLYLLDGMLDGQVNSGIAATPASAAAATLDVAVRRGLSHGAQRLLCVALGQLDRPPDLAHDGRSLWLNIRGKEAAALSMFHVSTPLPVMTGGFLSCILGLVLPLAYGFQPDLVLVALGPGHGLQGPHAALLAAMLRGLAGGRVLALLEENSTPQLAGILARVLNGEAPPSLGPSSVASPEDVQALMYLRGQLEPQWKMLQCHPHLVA

Histone deacetylase 8 = molecular target: T4, Histone deacetylase 8 (Homo sapiens, UniProt Q9BY41); assay: Inhibition of HDAC8 (unknown origin) incubated for 30 mins by fluorescence plate reader assay
T4 sequence (Q9BY41 whole entry): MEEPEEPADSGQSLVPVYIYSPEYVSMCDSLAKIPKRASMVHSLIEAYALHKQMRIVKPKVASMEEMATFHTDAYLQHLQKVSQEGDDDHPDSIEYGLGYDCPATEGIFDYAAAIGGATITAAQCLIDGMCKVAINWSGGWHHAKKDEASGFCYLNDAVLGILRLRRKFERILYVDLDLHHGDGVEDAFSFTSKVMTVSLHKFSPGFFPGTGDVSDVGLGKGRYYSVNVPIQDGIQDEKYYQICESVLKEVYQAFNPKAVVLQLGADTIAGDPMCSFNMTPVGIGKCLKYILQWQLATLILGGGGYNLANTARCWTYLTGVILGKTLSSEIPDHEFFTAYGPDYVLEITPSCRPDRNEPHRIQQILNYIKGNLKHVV

Histone deacetylase 4 = Histone deacetylase 4 (Homo sapiens, UniProt P56524); assay: Inhibition of HDAC4 (unknown origin) incubated for 30 mins by fluorescence plate reader assay
Sequence of Histone deacetylase 4 (P56524 whole entry): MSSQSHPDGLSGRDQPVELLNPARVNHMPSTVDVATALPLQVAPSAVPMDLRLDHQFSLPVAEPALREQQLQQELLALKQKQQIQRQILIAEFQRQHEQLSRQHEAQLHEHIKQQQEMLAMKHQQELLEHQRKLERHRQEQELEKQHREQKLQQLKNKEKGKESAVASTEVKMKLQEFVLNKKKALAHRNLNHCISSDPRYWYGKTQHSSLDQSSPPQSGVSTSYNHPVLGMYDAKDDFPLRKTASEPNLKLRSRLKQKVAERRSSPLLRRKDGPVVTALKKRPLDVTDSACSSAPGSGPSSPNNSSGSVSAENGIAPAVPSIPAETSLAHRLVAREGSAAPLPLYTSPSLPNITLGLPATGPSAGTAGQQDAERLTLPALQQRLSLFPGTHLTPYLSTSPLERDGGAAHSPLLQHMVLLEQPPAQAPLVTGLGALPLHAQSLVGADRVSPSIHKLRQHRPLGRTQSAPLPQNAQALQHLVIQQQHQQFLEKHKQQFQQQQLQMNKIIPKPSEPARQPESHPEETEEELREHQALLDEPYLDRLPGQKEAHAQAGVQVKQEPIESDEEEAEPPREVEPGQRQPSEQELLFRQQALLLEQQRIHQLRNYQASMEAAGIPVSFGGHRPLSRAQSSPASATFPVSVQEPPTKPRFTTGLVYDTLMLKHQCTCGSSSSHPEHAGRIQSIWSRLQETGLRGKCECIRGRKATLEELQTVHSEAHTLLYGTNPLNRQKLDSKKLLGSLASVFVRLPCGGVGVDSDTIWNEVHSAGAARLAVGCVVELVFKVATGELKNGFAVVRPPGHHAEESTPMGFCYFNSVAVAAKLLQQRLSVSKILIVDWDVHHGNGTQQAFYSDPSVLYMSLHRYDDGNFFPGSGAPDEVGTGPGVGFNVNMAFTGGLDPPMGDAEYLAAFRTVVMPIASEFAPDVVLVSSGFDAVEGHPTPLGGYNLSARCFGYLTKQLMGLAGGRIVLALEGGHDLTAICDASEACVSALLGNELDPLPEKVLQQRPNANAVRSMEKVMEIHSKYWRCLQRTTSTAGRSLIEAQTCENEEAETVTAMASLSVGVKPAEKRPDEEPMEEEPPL

Histone deacetylase 3 = Histone deacetylase 3 (Homo sapiens, UniProt O15379); assay: Inhibition of HDAC3 (unknown origin) incubated for 30 mins by fluorescence plate reader assay
Sequence of Histone deacetylase 3 (O15379 whole entry): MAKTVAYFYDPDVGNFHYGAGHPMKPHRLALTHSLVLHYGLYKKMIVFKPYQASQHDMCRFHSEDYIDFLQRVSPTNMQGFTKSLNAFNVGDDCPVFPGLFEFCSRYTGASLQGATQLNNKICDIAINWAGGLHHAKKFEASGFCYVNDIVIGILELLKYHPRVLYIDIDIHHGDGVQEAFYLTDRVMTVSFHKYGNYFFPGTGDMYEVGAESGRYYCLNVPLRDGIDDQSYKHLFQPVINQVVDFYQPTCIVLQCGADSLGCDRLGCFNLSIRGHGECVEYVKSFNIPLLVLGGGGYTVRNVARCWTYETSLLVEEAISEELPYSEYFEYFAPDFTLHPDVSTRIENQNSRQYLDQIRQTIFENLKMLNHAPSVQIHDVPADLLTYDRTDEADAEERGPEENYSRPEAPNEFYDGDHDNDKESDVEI

Histone deacetylase 7 = molecular target: T5, Histone deacetylase 7 (Homo sapiens, UniProt Q8WUI4); assay: Inhibition of HDAC7 (unknown origin) incubated for 30 mins by fluorescence plate reader assay
T5 sequence (Q8WUI4 whole entry): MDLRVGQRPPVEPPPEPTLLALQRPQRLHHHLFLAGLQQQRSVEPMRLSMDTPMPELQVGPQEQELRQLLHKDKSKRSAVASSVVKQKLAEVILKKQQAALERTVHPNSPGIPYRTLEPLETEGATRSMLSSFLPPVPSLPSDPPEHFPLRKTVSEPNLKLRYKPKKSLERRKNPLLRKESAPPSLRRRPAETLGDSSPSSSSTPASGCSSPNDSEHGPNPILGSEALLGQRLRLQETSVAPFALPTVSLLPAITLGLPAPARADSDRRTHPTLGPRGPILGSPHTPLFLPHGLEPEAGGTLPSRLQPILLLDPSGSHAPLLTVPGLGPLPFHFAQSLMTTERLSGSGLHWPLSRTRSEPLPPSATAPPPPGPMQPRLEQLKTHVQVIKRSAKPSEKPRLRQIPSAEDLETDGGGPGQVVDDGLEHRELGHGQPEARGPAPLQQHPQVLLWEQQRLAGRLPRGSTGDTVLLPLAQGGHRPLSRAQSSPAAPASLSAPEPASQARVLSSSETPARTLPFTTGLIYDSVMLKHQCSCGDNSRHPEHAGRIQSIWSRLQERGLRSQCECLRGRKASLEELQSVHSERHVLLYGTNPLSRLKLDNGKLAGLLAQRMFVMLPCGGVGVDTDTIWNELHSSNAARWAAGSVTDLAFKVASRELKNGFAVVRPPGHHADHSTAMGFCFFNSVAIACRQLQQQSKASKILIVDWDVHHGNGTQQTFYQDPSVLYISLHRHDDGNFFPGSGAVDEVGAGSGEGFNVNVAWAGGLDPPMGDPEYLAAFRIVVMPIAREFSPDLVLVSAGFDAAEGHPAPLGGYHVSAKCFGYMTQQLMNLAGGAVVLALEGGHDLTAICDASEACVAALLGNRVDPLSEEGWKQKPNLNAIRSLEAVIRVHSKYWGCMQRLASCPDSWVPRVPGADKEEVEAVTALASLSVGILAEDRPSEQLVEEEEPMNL

Histone deacetylase 2 = Histone deacetylase 2 (Homo sapiens, UniProt Q92769)
Sequence of Histone deacetylase 2 (Q92769 whole entry): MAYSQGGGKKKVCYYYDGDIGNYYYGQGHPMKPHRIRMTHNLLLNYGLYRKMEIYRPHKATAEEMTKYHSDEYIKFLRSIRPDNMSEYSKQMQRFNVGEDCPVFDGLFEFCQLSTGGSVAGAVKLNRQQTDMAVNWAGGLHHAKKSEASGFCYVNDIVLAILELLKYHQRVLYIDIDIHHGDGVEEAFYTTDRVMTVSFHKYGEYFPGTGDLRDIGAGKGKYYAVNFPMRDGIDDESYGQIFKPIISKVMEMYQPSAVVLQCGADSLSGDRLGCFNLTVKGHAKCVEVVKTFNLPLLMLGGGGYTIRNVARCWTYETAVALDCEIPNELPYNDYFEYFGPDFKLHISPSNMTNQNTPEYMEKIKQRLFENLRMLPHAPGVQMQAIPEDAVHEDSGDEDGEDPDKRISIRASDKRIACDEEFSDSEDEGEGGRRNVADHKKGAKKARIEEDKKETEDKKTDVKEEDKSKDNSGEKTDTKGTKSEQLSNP
Description: Inhibition of HDAC2 (unknown origin) incubated for 30 mins by fluorescence plate reader assay

IC50 [1] [nM] | IC50 (Histone deacetylase 1) [nM] | IC50 (Histone deacetylase 9) [nM] | IC50 (Histone deacetylase 11) [nM] | IC50 (Histone deacetylase 5) [nM] | IC50 [2] [nM] | IC50 (Histone deacetylase 8) [nM] | IC50 (Histone deacetylase 4) [nM] | IC50 (Histone deacetylase 3) [nM] | IC50 (Histone deacetylase 7) [nM] | IC50 (Histone deacetylase 2) [nM] | SMILES
87 | 941 | – | – | – | – | – | – | – | – | – | O=C(NO)c1ccc(CNC(=O)c2ccccc2)cc1
– | 850 | > 10000 | > 10000 | > 10000 | 1410 | 4480 | > 10000 | 1930 | 4950 | > 10000 | O=C(NO)c1ccc(CN(Cc2ccccc2)C(=O)c2ccccc2)cc1
